# In patent publication US20260070887A1 (Shenzhen Zhongge Biological Technology Co., Ltd., priority 2022, published 2026):
# Read-outs that look alike come from different tables or passages of the source.
# Tests used:
# OVCAR-3 cells = assay: OVCAR-3 cell proliferation (Cell Titer-Glo, 10 days); assay type: cell-based, human
# Experimental: The inhibitory effect on the KIF18A target by the compounds of the present disclosure was evaluated by testing the inhibitory effect on proliferation of OVCAR-3 cells by the compounds of the present disclosure.
# The following method was used to determine the effect of the compounds of the present disclosure on the proliferation of human ovarian cancer cells Ovcar-3 (HTB-161, ATCC). Cells were cultured in RPMI-1640 complete medium containing 20% fetal bovine serum, 0.01 mg/mL bovine insulin, 100 U penicillin, and 100 μg/mL streptomycin. The Promega kit Cell Titer-Glo (Cat. No. G7572) was used in this method for test.
# For specific steps, reference was made to the kit instructions, and the procedure was outlined below: Test compounds were dissolved in DMSO to prepare a 10 mM stock solution, which was diluted at the predetermined test concentrations, and the test compounds at different concentrations were added to a 384-well cell test plate using ECHO. In the plate pre-added with the test compounds, 400 OVCAR-3 cells in the logarithmic growth phase were seeded per well, ensuring the final concentration of the test compounds in the reaction system ranged between 0.12 nM and 10 μM. The co-culture was maintained in a cell culture incubator for 10 days. Before testing, the cell culture plate was equilibrated for 10 minutes at room temperature, 25 μL of Cell Titer-Glo was added to each well, and the mixture was shaken and mixed well and let stand for 5 minutes. The luminescence values for samples in various wells were read using a microplate reader in Luminescence mode.
# The percentage of inhibition of cell proliferation by the test compound at each concentration was calculated by comparing with the values of the control group (0.1% DMSO). The IC50 values of the compounds were obtained by concentration-inhibition rate nonlinear regression analysis of the test compounds using GraphPad Prism 9.
# KIF18A = KIF18A (Homo sapiens (Human), UniProt Q8NI77); assay: KIF18A ATPase activity under tubulin stimulation (ADP-Glo assay); assay type: biochemical; details: KIF18A 30 nM, ATP 150 μM, pig microtubules
# KIF18A, sequence (Q8NI77 whole entry): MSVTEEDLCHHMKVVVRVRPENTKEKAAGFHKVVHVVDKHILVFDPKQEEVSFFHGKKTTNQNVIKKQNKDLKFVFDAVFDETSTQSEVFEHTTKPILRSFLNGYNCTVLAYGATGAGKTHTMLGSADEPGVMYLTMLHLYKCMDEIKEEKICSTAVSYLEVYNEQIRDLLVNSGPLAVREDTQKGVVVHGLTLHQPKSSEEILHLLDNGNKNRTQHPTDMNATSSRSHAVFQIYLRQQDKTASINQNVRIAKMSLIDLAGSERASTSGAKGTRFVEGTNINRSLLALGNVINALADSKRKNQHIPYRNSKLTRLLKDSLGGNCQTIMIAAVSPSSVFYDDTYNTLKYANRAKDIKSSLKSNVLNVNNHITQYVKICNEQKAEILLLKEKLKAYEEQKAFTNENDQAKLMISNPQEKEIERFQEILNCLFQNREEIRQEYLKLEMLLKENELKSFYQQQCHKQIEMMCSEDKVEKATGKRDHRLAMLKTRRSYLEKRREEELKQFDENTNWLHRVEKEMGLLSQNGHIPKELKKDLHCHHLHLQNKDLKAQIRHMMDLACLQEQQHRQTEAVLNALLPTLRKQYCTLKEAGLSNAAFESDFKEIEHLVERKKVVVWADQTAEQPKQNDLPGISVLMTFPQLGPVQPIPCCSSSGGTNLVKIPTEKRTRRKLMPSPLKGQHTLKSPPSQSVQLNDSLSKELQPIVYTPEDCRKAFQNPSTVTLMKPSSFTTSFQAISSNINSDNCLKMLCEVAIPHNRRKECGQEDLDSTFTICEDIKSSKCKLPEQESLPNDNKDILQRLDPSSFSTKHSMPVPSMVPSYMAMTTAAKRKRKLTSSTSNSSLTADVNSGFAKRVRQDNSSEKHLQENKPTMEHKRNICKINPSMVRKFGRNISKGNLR
# KIF18A, sequence (P02550 whole entry partner): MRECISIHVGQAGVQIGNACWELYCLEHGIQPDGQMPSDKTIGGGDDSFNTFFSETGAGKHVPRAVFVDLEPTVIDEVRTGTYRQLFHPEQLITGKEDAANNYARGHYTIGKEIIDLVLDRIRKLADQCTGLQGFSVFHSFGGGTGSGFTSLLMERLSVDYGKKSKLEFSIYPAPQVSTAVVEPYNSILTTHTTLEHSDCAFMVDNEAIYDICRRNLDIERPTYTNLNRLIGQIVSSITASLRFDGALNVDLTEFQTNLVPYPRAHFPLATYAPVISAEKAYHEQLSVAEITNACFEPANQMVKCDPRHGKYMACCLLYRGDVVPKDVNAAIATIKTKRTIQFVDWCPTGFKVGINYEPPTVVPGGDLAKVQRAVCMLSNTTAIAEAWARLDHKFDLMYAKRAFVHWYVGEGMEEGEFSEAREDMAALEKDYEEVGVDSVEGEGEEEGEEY
# KIF18A, sequence (P02554 whole entry partner): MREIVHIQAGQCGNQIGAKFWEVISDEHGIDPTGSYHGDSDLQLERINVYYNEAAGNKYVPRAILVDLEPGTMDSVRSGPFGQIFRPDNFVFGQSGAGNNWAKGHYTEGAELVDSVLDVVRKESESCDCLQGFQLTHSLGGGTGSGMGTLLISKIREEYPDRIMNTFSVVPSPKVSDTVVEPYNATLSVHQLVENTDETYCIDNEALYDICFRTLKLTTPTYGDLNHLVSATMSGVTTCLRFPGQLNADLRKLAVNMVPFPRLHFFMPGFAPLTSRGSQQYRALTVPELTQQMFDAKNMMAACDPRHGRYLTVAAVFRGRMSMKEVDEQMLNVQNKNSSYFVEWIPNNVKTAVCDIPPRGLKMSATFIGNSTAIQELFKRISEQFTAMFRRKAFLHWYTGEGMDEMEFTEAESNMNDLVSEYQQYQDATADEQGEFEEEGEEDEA
compound,measurement,setting,value
"CCOc1ccc(NC(=O)c2ccc(NS(=O)(=O)CCO)cc2N2CCC(=C(F)F)CC2)c2cc3n(c12)CC(C)(C)OC3 [Example 536, 2-(4-(difluoromethylene)piperidin-1-yl)-N-(6-ethoxy-3,3-dimethyl-3,4-dihydro-1H-[1,4]oxazino[4,3-a]indol-9-yl)-4-((2-hydroxyethyl)sulfonamido)benzamide]",IC50,"OVCAR-3 cells; Homo sapiens, OVCAR-3, 240 h",50 to 500 nM
same,IC50,KIF18A,50 to 500 nM
"O=C(Nc1cccc2c1ccn2CC1(F)CC1)c1ccc(NS(=O)(=O)CCO)cc1N1CCC2(CC1)CC2 [Example 283, N-(1-((1-fluorocyclopropyl)methyl)-1H-indol-4-yl)-4-((2-hydroxyethyl)sulfonamido)-2-(6-azaspiro[2.5]oct-6-yl)benzamide]",IC50,"OVCAR-3 cells; Homo sapiens, OVCAR-3, 240 h",50 to 500 nM
same,IC50,KIF18A,50 to 500 nM
N-(1-(cyclopropylmethyl)-1H-indol-4-yl)-4-methoxy-2-(6-azaspiro[2.5]octan-6-yl)benzamide [Example 127],IC50,OVCAR-3 cells,≤ 50 nM
same,IC50,KIF18A,≤ 50 nM
"CCS(=O)(=O)Nc1ccc(C(=O)Nc2cccc3c2cc2n3CCC(F)(F)C2O)c(N2CCC(=C(F)F)CC2)c1 (centres unmarked) [Example 381, N-(8,8-difluoro-9-hydroxy-6,7,8,9-tetrahydropyridino[1,2-a]indol-1-yl)-2-(4-(difluoromethylene)piperidin-1-yl)-4-ethyl sulfonamidobenzamide]",IC50,OVCAR-3 cells,≤ 50 nM
same,IC50,KIF18A,≤ 50 nM
"CCS(=O)(=O)Nc1ccc(C(=O)Nc2cccc3c2cc2n3CCCC2O)c(N2CCC3(CC2)CC3)c1 (single isomer, unassigned) [Example 373-P1, 4-(ethylsulfonamido)-N-(9-hydroxy-6,7,8,9-tetrahydropyridino[1,2-a]indol-1-yl)-2-(6-azaspiro[2.5]oct-6-yl)benzamide]",IC50,"OVCAR-3 cells; Homo sapiens, OVCAR-3, 240 h",50 to 500 nM
same,IC50,KIF18A,50 to 500 nM
"CC1Cn2c(nc3c(NC(=O)c4ccc(NS(=O)(=O)CCO)cc4N4CCC5(CC4)CC5)ccc(F)c32)C(C)O1 (centres unmarked) [Example 445, 2-(6-azaspiro[2.5]oct-6-yl)-N-(6-fluoro-1,3-dimethyl-3,4-dihydro-1H-benzo[4,5]imidazo[2,1-c][1,4]oxazin-9-yl)-4-{[(2-hydroxyethyl)sulfonamide]}benzamide]",IC50,OVCAR-3 cells,≤ 50 nM
same,IC50,KIF18A,≤ 50 nM
[2H]C([2H])([2H])Oc1ccc(NC(=O)c2ccc(NS(=O)(=O)CCO)cc2N2CCC(=C(F)F)CC2)c2cc3n(c12)CC(C)(C)OC3 [Example 576],IC50,"OVCAR-3 cells; Homo sapiens, OVCAR-3, 240 h",≤ 50 nM
same,IC50,KIF18A,50 to 500 nM
"CC1(C)Cn2c(cc3c(NC(=O)c4ccc(NS(=O)(=O)CCO)nc4N4CCC5(CC4)CC5)cccc32)CO1 [Example 453, N-(3,3-dimethyl-3,4-dihydro-1H-[1,4]oxazino[4,3-a]indol-9-yl)-6-((2-hydroxyethyl)sulfonamido)-2-(6-azaspiro[2.5]octan-6-yl)nicotinamide]",IC50,"OVCAR-3 cells; Homo sapiens, OVCAR-3, 240 h",500 to 5000 nM
same,IC50,KIF18A,50 to 500 nM
"O=C(Nc1cccc2c1CC1CCCN21)c1ccc(NS(=O)(=O)CCO)cc1N1CCC2(CC1)CC2 (centres unmarked) [Example 130, 4-((2-hydroxyethyl)sulfonamide)-2-(6-azaspiro[2.5]octan-6-yl)-N-(2,3,9,9a-tetrahydro-1H-pyrrolo[1,2a]indol-8-yl)benzamide]",IC50,OVCAR-3 cells,50 to 500 nM
same,IC50,KIF18A,≤ 50 nM
COc1ccc(NC(=O)c2ccc(NS(=O)(=O)CCO)cc2N2CCC3(CC2)CC3)c2nc3n(c12)CC(C)(C)OC3 [Example 488],IC50,OVCAR-3 cells,≤ 50 nM
same,IC50,KIF18A,50 to 500 nM
"COc1ccc(NC(=O)c2ccc(NS(=O)(=O)CCO)cc2N2CCC(=C(F)F)CC2)c2cc3n(c12)CCC(F)(F)C3 [Example 477, N-(8,8-difluoro-4-methoxy-6,7,8,9-tetrahydropyridino[1,2-a]indol-1-yl)-2-(4-(difluoromethylene)piperidin-1-yl)-4-((2-hydroxyethyl)sulfonamido)benzamide]",IC50,"OVCAR-3 cells; Homo sapiens, OVCAR-3, 240 h",≤ 50 nM
same,IC50,KIF18A,50 to 500 nM
"CC1Cn2c(cc3c(NC(=O)c4ccc(NS(=O)(=O)CCO)cc4N4CCC5(CC4)CC5)cccc32)C(C)O1 (single isomer, unassigned) [Compound 312-P1, N-(1,3-dimethyl-3,4-dihydro-1H-[1,4]oxazino[4,3-a]indol-9-yl)-4-((2-hydroxyethyl)sulfonamido)-2-(6-azaspiro[2.5]oct-6-yl)benzamide]",IC50,"OVCAR-3 cells; Homo sapiens, OVCAR-3, 240 h",50 to 500 nM
same,IC50,KIF18A,50 to 500 nM
"O=C(Nc1cccc2c1cc1n2CCC(F)(F)C1O)c1ccc(NS(=O)(=O)CCO)cc1N1CCC2(CC1)CC2 (centres unmarked) [Compound 384, N-(8,8-difluoro-9-hydroxy-6,7,8,9-tetrahydropyridino[1,2-a]indol-1-yl)-4-((2-hydroxyethyl)sulfonamido)-2-(6-azaspiro[2.5]oct-6-yl)benzamide]",IC50,"OVCAR-3 cells; Homo sapiens, OVCAR-3, 240 h",≤ 50 nM
same,IC50,KIF18A,50 to 500 nM
"CC1(C)Cn2c(cc3c(NC(=O)c4ccc(NS(=O)(=O)CCO)cc4N4CCC5(CC4)CC5)ccc(F)c32)CO1 [Example 519, N-(6-fluoro-3,3-dimethyl-3,4-dihydro-1H-[1,4]oxazinyl[4,3-a]indol-9-yl)-4-((2-hydroxyethyl)sulfanilamido)-2-(6-azaspiro[2.5]oct-6-yl)benzamide]",IC50,OVCAR-3 cells,50 to 500 nM
same,IC50,KIF18A,50 to 500 nM
"CC1OCCn2c1cc1c(NC(=O)c3ccc(NS(=O)(=O)CCO)cc3N3CCC4(CC3)CC4)cccc12 (centres unmarked) [Compound 311-P1, 4-((2-hydroxyethyl)sulfonamido)-N-(1-methyl-3,4-dihydro-1H-[1,4]oxazinyl[4,3-a]indol-9-yl)-2-(6-azaspiro[2.5]oct-6-yl)benzamide]",IC50,OVCAR-3 cells,50 to 500 nM
same,IC50,KIF18A,≤ 50 nM
"CC1Cn2c(cc3c(NC(=O)c4ccc(NS(=O)(=O)CCO)cc4N4CCC5(CC4)CC5)cccc32)C(C)O1 (centres unmarked) [Example 312, N-(1,3-dimethyl-3,4-dihydro-1H-[1,4]oxazino[4,3-a]indol-9-yl)-4-((2-hydroxyethyl)sulfonamido)-2-(6-azaspiro[2.5]oct-6-yl)benzamide]",IC50,"OVCAR-3 cells; Homo sapiens, OVCAR-3, 240 h",≤ 50 nM
same,IC50,KIF18A,50 to 500 nM
"CC(C)Oc1ccc(NC(=O)c2ccc(NS(=O)(=O)CCO)cc2N2CCC3(CC2)CC3)c2cc3n(c12)CC(C)(C)OC3 [Example 531, 4-((2-hydroxyethyl)sulfonamido)-N-(6-isopropoxy-3,3-dimethyl-3,4-dihydro-1H-[1,4]oxazinyl[4,3-a]indol-9-yl)-2-(6-azaspiro[2.5]oct-6-yl)benzamide]",IC50,"OVCAR-3 cells; Homo sapiens, OVCAR-3, 240 h",50 to 500 nM
same,IC50,KIF18A,50 to 500 nM
"O=C(Nc1cccc2c1cc1n2CCC(F)(F)C1O)c1ccc(NS(=O)(=O)CCO)cc1N1CCC(=C(F)F)CC1 (centres unmarked) [Compound 383, N-(8,8-difluoro-9-hydroxy-6,7,8,9-tetrahydropyridino[1,2-a]indol-1-yl)-2-(4-(difluoromethylene)piperidin-1-yl)-4-((2-hydroxyethyl)sulfonamido)benzamide]",IC50,"OVCAR-3 cells; Homo sapiens, OVCAR-3, 240 h",≤ 50 nM
same,IC50,KIF18A,≤ 50 nM
"COC1c2cc3c(NC(=O)c4ccc(NS(=O)(=O)CCO)cc4N4CCC5(CC4)CC5)cccc3n2CCC1(F)F (single isomer, unassigned) [Example 340-P1]",IC50,OVCAR-3 cells,50 to 500 nM
same,IC50,KIF18A,50 to 500 nM
O=C(Nc1ccc(OC(F)F)c2c1cc1n2CCC(F)(F)C1)c1ccc(NS(=O)(=O)CCO)cc1N1CCC(=C(F)F)CC1 [Example 586],IC50,"OVCAR-3 cells; Homo sapiens, OVCAR-3, 240 h",50 to 500 nM
same,IC50,KIF18A,50 to 500 nM
"O=C(Nc1cccc2c1CC1COCCN21)c1ccc(NS(=O)(=O)CCO)cc1N1CCC2(CC1)CC2 (centres unmarked) [Compound 411, 4-((2-hydroxyethyl)sulfonamido)-2-(6-azaspiro[2.5]oct-6-yl)-N-(3,4,10,10-tetrahydro-1H-[1,4]oxazino[4,3-a]indol-9-yl)benzamide]",IC50,OVCAR-3 cells,50 to 500 nM
same,IC50,KIF18A,50 to 500 nM
Cc1ccc(NC(=O)c2ccc(NS(=O)(=O)CCO)cc2N2CCC3(CC2)CC3)c2cc3n(c12)CC(C)(C)OC3 [Example 525],IC50,OVCAR-3 cells,≤ 50 nM
same,IC50,KIF18A,50 to 500 nM
